Results taken from ChEMBL document CHEMBL4177538, “Recent progress in prodrug design strategies based on generally applicable modifications” (Bioorg Med Chem Lett, 2017).

Columns and labels:
[1] = Half life in phosphate buffered saline at pH 7.4 at 37 degC; assay type: physicochemical
glucuronidase = assay: Half life in phosphate buffered saline at pH 7 in presence of glucuronidase at 37 degC; assay type: ADME

Row | SMILES | half-life [1] [min] | half-life (glucuronidase) [min]
1 | Cc1cccc(C)c1OCC(=O)N[C@@H](Cc1ccccc1)[C@H](OC(=O)CCC(=O)NCCN1CCCCC1)C(=O)N1CSC(C)(C)[C@H]1C(=O)NC(C)(C)C | 12 | 
2 | CC[C@@]1(O)C(=O)OCc2c1cc1n(c2=O)Cc2cc3cc(OCc4ccc(O[C@@H]5O[C@H](C(=O)O)[C@@H](O)[C@H](O)[C@H]5O)c([N+](=O)[O-])c4)ccc3nc2-1 |  | 20
